According to patent US20080227730A1, “9A-Carbamoyl and Thiocarbamoyl Azalides With Antimalarial Activity” (GLAXOSMITHKLINE ISTRAZIVACKI CENTAR ZAGREB D.O.O., priority 2005, published 2008):
In brackets after ≈: the same amount, converted by molar mass.

Experiments:
[1] = system: Plasmodium falciparum W-2 (CDC/Indochina III); assay: In vitro antimalarial [3H]-hypoxanthine incorporation serial dilution assay, clone W2; type: cell-based; settings: P. falciparum W2 clone, parasites exposed for 72 hours, azithromycin value averaged
From the text: (§1) The in vitro screens for intrinsic antimalarial activity were based on modifications of the procedures described by Desjardins R E, Canfield C J, Haynes J D, Chulay J D. (Quantitative assessment of antimalarial activity in vitro by a semiautomated microdilution technique. Antimicrob Agents Chemother. 1979 December; 16(6):710-8.), Chulay J D, Haynes J D, Diggs C L. (Plasmodium falciparum: Assessment of in vitro growth by [3H]hypoxanthine incorporation. Exp. Parasitol. 1983 55:138-146.), and Milhous W N, Weatherly N F, Bowdre J H, Desjardins R E. (In vitro activities of and mechanisms of resistance to antifol antimalarial drugs. Antimicrob Agents Chemother. 1985 April; 27(4):525-30.). The system was limited to the assessment of the intrinsic activity against the erythrocytic asexual life cycle (blood schizontocides). Two Plasmodium falciparum clones from CDC/Indochina III (W-2) and CDC/Sierra Leone I (D-6) (Oduola A M, Weatherly N F, Bowdre J H, Desjardins R E. Plasmodium falciparum: cloning by single-erythrocyte micromanipulation and heterogeneity in vitro. Exp Parasitol. 1988 66(1):86-95.) were used for all assays. TM91C235, a multiple drug resistant isolate from Thailand, was used for the prescreening assay. W-2 is resistant to chloroquine, quinine, and pyrimethamine and susceptible to mefloquine. D-6 tends to be more resistant to mefloquine and susceptible to chloroquine, quinine, and pyrimethamine. All documents cited in this paragraph are incorporated by reference in their entirety.
(§2) All parasites were maintained in continuous long term cultures in RPMI-1640 medium supplemented with 6% washed human A positive (A+)(erythrocytes, 25 mM Hepes, […], and 10% heat inactivated A+ human plasma or ALBUMAX® (lipid-rich bovine serum albumin; Invitrogen, Carlsbad, Calif.). All cultures and assays were conducted at 37° C. under an atmosphere of 5% CO2 and 5% O2, with a balance of N2.
(§3) The prescreening assay uses TM91C235 diluted at a 0.4% parasitemia in a 1% hematocrit in folic acid free and p-aminobenzoic acid free media RPMI-1640 and ALBUMAX®. One mg of the compound is typically dissolved in 100 μl of dimethyl sulfoxide (DMSO). The compound is further diluted in culture medium (FF) with ALBUMAX® for the first initial starting concentration. The rest of the stock drug solution was kept at −70° C. The isolate was preexposed, in duplicate, at three concentrations (25,000 ng/ml, 2,500 ng/ml, and 25 ng/ml) of the test compound for 48 hr in a 96-well microtiter plate (MTP) using the BIOMEK® 2000 automated laboratory workstation. Each MTP contains chloroquine as control to assess the relative activity of the compound and to monitor the response of TM91C235.
(§4) After the preincubation, [^3H]-hypoxanthine was added to each well of the MTP. (The assay relies on the incorporation of radiolabeled hypoxanthine by the parasites, which indicates reproduction, and inhibition of isotope incorporation was attributed to activity of known or candidate antimalarial drugs). After 72 hr of total incubation time, the MTP were frozen to lyse the erythrocytes and parasites. The parasite DNA was recovered by harvesting the lysate onto glass-fiber filter plates using a Packard FilterMate™ Cell Harvester. The radioactivity was counted on a Packard TopCount™ microplate scintillation counter. The results were recorded as counts per minutes (CPM) per well at each drug concentration divided by the arithmetic mean of the CPM from the three untreated infection parasite control wells.
(§5) The serial dilution assay was conducted using the same assay conditions and stock solution of the compound used for the preliminary screen, described above. Both the D-6 and the W-2 clones were used. The compounds were diluted two-fold over 11 different concentration ranges with a starting concentration that was based on the preliminary screen. […]

[2] = system: Plasmodium falciparum TM91C235; assay: In vitro antimalarial [3H]-hypoxanthine incorporation assay, strain TM91C235; type: cell-based; settings: P. falciparum TM91C235 (multiple drug resistant isolate from Thailand), parasites exposed for 72 hours, azithromycin value averaged
From the text: as §1, §2, §3, §4, §5

[3] = system: Plasmodium falciparum D-6 (CDC/Sierra Leone I); assay: In vitro antimalarial [3H]-hypoxanthine incorporation serial dilution assay, clone D6; type: cell-based; settings: P. falciparum D6 clone, parasites exposed for 72 hours, azithromycin value averaged
From the text: as §1, §2, §3, §4, §5

Plasmodium cynomolgi = settings: rhesus monkey; cited from earlier work
Plasinodium falciparum = settings: non-immune patients, Plasmodium falciparum, as compared to controls; cited from earlier work
Plasmodium vivax = settings: non-immune patients, as compared to controls; cited from earlier work
[4] = system: Plasmodium yoelii nigeriensis; settings: cited from earlier work
Plasmodium berghei = settings: cited from earlier work

Molecule	IC50 [1] [µg/mL]	IC50 [2] [µg/mL]	IC50 [3] [µg/mL]	efficacy in monkey model (Plasmodium cynomolgi)	prophylactic efficacy (Plasinodium falciparum) [%]	prophylactic efficacy (Plasmodium vivax) [%]	activity in mouse model [4]	activity in mouse model (Plasmodium berghei)
CC[C@H]1OC(=O)[C@H](C)[C@@H](O[C@H]2C[C@@](C)(OC)[C@@H](O)[C@H](C)O2)[C@H](C)[C@@H](O[C@@H]2O[C@H](C)C[C@H](N(C)C)[C@H]2O)[C@](C)(O)C[C@@H](C)CN(C(=O)Nc2cccc3ccccc23)[C@H](C)[C@@H](O)[C@]1(C)O [Compound 8]	1.9 (≈ 2.11 µM)	0.712 (≈ 0.788 µM)	0.751 (≈ 0.831 µM)	–	–	–	–	–
CC[C@H]1OC(=O)[C@H](C)[C@@H](O[C@H]2C[C@@](C)(OC)[C@@H](O)[C@H](C)O2)[C@H](C)[C@@H](O[C@@H]2O[C@H](C)C[C@H](N(C)C)[C@H]2O)[C@](C)(O)C[C@@H](C)CN(C(=S)Nc2cccc(Cl)c2)[C@H](C)[C@@H](O)[C@]1(C)O [Compound 9]	1.5 (≈ 1.66 µM)	–	0.762 (≈ 0.843 µM)	–	–	–	–	–
CC[C@H]1OC(=O)[C@H](C)[C@@H](O[C@H]2C[C@@](C)(OC)[C@@H](O)[C@H](C)O2)[C@H](C)[C@@H](O[C@@H]2O[C@H](C)C[C@H](N(C)C)[C@H]2O)[C@](C)(O)C[C@@H](C)CN(C)[C@H](C)[C@@H](O)[C@]1(C)O [azithromycin]	–	–	–	active	71.6	98.9	–	–
CC[C@H]1OC(=O)[C@H](C)[C@@H](O[C@H]2C[C@@](C)(OC)[C@@H](O)[C@H](C)O2)[C@H](C)[C@@H](O[C@@H]2O[C@H](C)C[C@H](N(C)C)[C@H]2O)[C@](C)(O)C[C@@H](C)CN(C(=O)NS(=O)(=O)c2ccccc2Cl)[C@H](C)[C@@H](O)[C@]1(C)O [Compound 3]	1.43 (≈ 1.5 µM)	> 1.62	1.11 (≈ 1.17 µM)	–	–	–	–	–
CC[C@H]1OC(=O)[C@H](C)[C@@H](O[C@H]2C[C@@](C)(OC)[C@@H](O)[C@H](C)O2)[C@H](C)[C@@H](O[C@@H]2O[C@H](C)C[C@H](N(C)C)[C@H]2O)[C@](C)(O)C[C@@H](C)CN(C(=O)Nc2cccc(Cl)c2)[C@H](C)[C@@H](O)[C@]1(C)O [Compound 7]	1.22 (≈ 1.37 µM)	–	0.583 (≈ 0.656 µM)	–	–	–	–	–
CC[C@H]1OC(=O)[C@H](C)[C@@H](O[C@H]2C[C@@](C)(OC)[C@@H](O)[C@H](C)O2)[C@H](C)[C@@H](O[C@@H]2O[C@H](C)C[C@H](N(C)C)[C@H]2OC(C)=O)[C@](C)(O)C[C@@H](C)CN(C(=O)NC(C)C)[C@H](C)[C@@H](O)[C@]1(C)O [Compound 10]	> 1.76	0.353 (≈ 0.41 µM)	> 0.797	–	–	–	–	–
CC[C@H]1OC(=O)[C@H](C)[C@@H](O[C@H]2C[C@@](C)(OC)[C@@H](O)[C@H](C)O2)[C@H](C)[C@@H](O[C@@H]2O[C@H](C)C[C@H](N(C)C)[C@H]2O)[C@](C)(O)C[C@@H](C)CN(C(=O)Nc2ccc(S(=O)(=O)Nc3ccccc3)cc2)[C@H](C)[C@@H](O)[C@]1(C)O [Compound 1]	0.448 (≈ 0.444 µM)	0.299 (≈ 0.296 µM)	0.428 (≈ 0.424 µM)	–	–	–	–	–
CC[C@H]1OC(=O)[C@H](C)[C@@H](O[C@H]2C[C@@](C)(OC)[C@@H](O)[C@H](C)O2)[C@H](C)[C@@H](O[C@@H]2O[C@H](C)C[C@H](N(C)C)[C@H]2O)[C@](C)(O)C[C@@H](C)CN(C(=O)Nc2ccc(S(=O)(=O)Nc3ccccn3)cc2)[C@H](C)[C@@H](O)[C@]1(C)O [Compound 2]	> 1.76	1.03 (≈ 1.02 µM)	0.251 (≈ 0.248 µM)	–	–	–	–	–
CC[C@H]1OC(=O)[C@H](C)[C@@H](O)[C@H](C)[C@@H](O[C@@H]2O[C@H](C)C[C@H](N(C)C)[C@H]2O)[C@](C)(O)C[C@@H](C)CN(C(=O)Nc2ccc(S(=O)(=O)Nc3ccccn3)cc2)[C@H](C)[C@@H](O)[C@]1(C)O [Compound 6]	> 1.76	> 1.62	0.0908 (≈ 0.107 µM)	–	–	–	–	–
CC[C@H]1OC(=O)[C@H](C)[C@@H](O[C@H]2C[C@@](C)(OC)[C@@H](O)[C@H](C)O2)[C@H](C)[C@@H](O[C@@H]2O[C@H](C)C[C@H](N(C)C)[C@H]2O)[C@](C)(O)C[C@@H](C)CN(C(=S)NCc2ccccc2)[C@H](C)[C@@H](O)[C@]1(C)O [Compound 11]	0.386 (≈ 0.436 µM)	0.304 (≈ 0.344 µM)	0.253 (≈ 0.286 µM)	–	–	–	–	–
CC[C@H]1OC(=O)[C@H](C)[C@@H](O)[C@H](C)[C@@H](O[C@@H]2O[C@H](C)C[C@H](N(C)C)[C@H]2O)[C@](C)(O)C[C@@H](C)CN(C(=O)Nc2ccc(S(=O)(=O)Nc3cc(C)on3)cc2)[C@H](C)[C@@H](O)[C@]1(C)O [Compound 5]	> 1.76	> 1.62	0.0523 (≈ 0.0611 µM)	–	–	–	–	–
CC[C@H]1OC(=O)[C@H](C)[C@@H](O[C@H]2C[C@@](C)(OC)[C@@H](O)[C@H](C)O2)[C@H](C)[C@@H](O[C@@H]2O[C@H](C)C[C@H](N(C)C)[C@H]2O)[C@](C)(O)C[C@@H](C)CN(C(=O)Nc2ccc(S(=O)(=O)Nc3cc(C)on3)cc2)[C@H](C)[C@@H](O)[C@]1(C)O [Compound 4]	1.59 (≈ 1.57 µM)	> 1.62	0.12 (≈ 0.118 µM)	–	–	–	–	–
midecamycinin	–	–	–	no efficacy	–	–	active	active
